Reference: patent US10160750B2, “Diamide macrocycles as factor XIa inhibitors” (BRISTOL-MYERS SQUIBB COMPANY, priority 2015, dated 2018)

What was measured:
[1] = target: T1, purified human Factor XIa (Homo sapiens, UniProt P03951); experiment: Factor XIa enzyme inhibition assay (chromogenic substrate S-2366); assay type: biochemical; conditions: substrate S-2366, pH 7.4
T1 construct: purchased Haematologic Technologies
Experimental: (§1) The effectiveness of compounds of the present invention as inhibitors of the coagulation Factors XIa, VIIa, IXa, Xa, XIIa, plasma kallikrein or thrombin, can be determined using a relevant purified serine protease, respectively, and an appropriate synthetic substrate. The rate of hydrolysis of the chromogenic or fluorogenic substrate by the relevant serine protease was measured both in the absence and presence of compounds of the present invention. […] A decrease in the rate of absorbance or fluorescence change in the presence of inhibitor is indicative of enzyme inhibition. Such methods are known to one skilled in the art. The results of this assay are expressed as the inhibitory constant, Ki.
Factor XIa determinations were made in 50 mM HEPES buffer at pH 7.4 containing 145 mM NaCl, 5 mM KCl, and 0.1% PEG 8000 (polyethylene glycol; JT Baker or Fisher Scientific). Determinations were made using purified human Factor XIa at a final concentration of 25-200 pM (Haematologic Technologies) and the synthetic substrate S-2366 (pyroGlu-Pro-Arg-pNA; Chromogenix or AnaSpec) at a concentration of 0.0002-0.001 M.
(§2) The Michaelis constant, Km, for substrate hydrolysis by each protease, was determined at 25° C. or 37° C. in the absence of inhibitor. Values of Ki were determined by allowing the protease to react with the substrate in the presence of the inhibitor. Reactions were allowed to go for periods of 20-180 minutes (depending on the protease) and the velocities (rate of absorbance or fluorescence change versus time) were measured. The following relationships were used to calculate Ki values: (Vmax*S)/(Km+S); (vo−vs)/vs=I/(Ki*(1+S/Km)) for a competitive inhibitor with one binding site; or vs/vo=A+((B−A)/(1+(IC50/(I))^n)); and Ki=IC50/(1+S/Km) for a competitive inhibitor where: […]

[2] = target: T2, purified human plasma kallikrein (Homo sapiens, UniProt P03952); experiment: Plasma kallikrein enzyme inhibition assay (chromogenic substrate S-2302); assay type: biochemical; conditions: substrate S-2302, pH 7.5
T2 construct: Plasma prekallikrein is a zymogen of a trypsin-like serine protease; purchased Enzyme Research Laboratories
T2 sequence (P03952 391-638 limits assumed): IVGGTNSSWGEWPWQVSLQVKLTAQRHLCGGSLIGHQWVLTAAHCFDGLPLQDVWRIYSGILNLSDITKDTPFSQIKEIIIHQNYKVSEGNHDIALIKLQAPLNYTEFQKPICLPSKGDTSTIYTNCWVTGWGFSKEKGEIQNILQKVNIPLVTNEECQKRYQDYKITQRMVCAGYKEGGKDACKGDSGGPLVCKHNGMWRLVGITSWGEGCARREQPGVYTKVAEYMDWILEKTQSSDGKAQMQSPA
T2 sequence (P03952 20-390 partner limits assumed): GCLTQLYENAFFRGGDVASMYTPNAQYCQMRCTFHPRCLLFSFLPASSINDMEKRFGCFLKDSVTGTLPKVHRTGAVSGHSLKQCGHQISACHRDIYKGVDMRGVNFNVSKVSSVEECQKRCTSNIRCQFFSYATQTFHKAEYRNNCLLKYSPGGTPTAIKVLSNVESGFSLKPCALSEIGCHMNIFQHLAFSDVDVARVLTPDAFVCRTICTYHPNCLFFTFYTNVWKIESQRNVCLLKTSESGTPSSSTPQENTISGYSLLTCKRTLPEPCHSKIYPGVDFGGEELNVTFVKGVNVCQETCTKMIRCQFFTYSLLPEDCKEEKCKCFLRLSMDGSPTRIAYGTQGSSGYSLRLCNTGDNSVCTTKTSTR
Experimental: as §1
Plasma kallikrein determinations were made in 0.1 M sodium phosphate buffer at a pH of 7.5 containing 0.1-0.2 M sodium chloride and 0.5% PEG 8000. Determinations were made using purified human plasma kallikrein (Enzyme Research Laboratories) at a final assay concentration of 200 pM and the synthetic substrate S-2302 (H-(D)-Pro-Phe-Arg-pNA; Chromogenix) at a concentration of 0.00008-0.0004 M.
as §2

T1 sequence (P03951 388-625 limits assumed): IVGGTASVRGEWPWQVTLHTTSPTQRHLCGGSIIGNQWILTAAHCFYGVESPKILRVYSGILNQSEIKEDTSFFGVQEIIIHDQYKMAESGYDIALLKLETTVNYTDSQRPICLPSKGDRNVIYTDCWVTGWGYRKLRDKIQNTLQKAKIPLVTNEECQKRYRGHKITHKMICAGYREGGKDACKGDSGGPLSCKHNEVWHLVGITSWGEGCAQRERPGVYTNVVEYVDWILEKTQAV
T1 sequence (P03951 19-387 partner limits assumed): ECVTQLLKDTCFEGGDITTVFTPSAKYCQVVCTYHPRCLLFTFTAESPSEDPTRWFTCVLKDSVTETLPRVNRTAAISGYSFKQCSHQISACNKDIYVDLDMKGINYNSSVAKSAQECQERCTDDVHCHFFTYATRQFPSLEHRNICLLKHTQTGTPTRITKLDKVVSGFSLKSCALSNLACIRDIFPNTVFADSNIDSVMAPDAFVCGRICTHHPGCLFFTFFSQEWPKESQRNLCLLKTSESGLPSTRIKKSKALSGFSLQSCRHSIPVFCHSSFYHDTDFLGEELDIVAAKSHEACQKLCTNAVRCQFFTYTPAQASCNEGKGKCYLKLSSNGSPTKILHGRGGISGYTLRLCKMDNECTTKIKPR

SMILES	Ki [1] [µM]	Ki [2] [µM]
COC(=O)c1ccc2c(c1)NC(=O)CCCCC[C@H](n1cnc(-c3cc(Cl)ccc3-n3cc(C(F)(F)F)nn3)cc1=O)C(=O)N2 [Example 27, methyl (S)-3-(4-(5-chloro-2-(4-(trifluoromethyl)-1H-1,2,3-triazol-1-yl)phenyl)-6-oxopyrimidin-1(6H)-yl)-2,9-dioxo-1,2,3,4,5,6,7,8,9,10-decahydrobenzo[b][1,4]diazacyclododecine-12-carboxylate]	0.561	> 13
C[C@@H]1CCC[C@H](N2CCC(c3cc(Cl)ccc3-n3cc(Cl)nn3)=CC2=O)C(=O)NCc2ccccc2NC1=O [Example 16, (3R,7S)-7-(4-(5-Chloro-2-(4-chloro-H-1,2,3-triazol-1-yl)phenyl)-2-oxo-5,6-dihydropyridin-1(2H)-yl)-3-methyl-4,5,6,7,9,10-hexahydrobenzo[b][1,5]diazacyclododecine-2,8(1H, 3H)-dione]	0.004	0.0607
CC1NC(=O)[C@@H](N2CCC(c3cc(Cl)ccc3-n3cc(C(F)(F)F)nn3)=CC2=O)CCC[C@@H](C)C(=O)Nc2ccccc21 (single isomer, unassigned; diastereomer a) [Example 21]	0.093	2.83
C[C@@H]1CCC[C@H](n2cnc(-c3cc(Cl)ccc3-n3cc(C(F)F)nn3)cc2=O)C(=O)NCc2ccccc2NC1=O [Example 15, (3R,7S)-7-(4-(5-Chloro-2-(4-(difluoromethyl)-1H-1,2,3-triazol-1-yl)phenyl)-6-oxopyrimidin-1(6H)-yl)-3-methyl-4,5,6,7,9,10-hexahydrobenzo[b][1,5]diazacyclo-dodecine-2,8(1H, 3H)-dione]	0.0348	3.36
C[C@@H]1CCC[C@H](n2cnc(-c3c(-n4cc(C(F)(F)F)nn4)ccc(Cl)c3F)cc2=O)C(=O)NCc2ccccc2NC1=O [Example 14, (3R,7S)-7-(4-(3-Chloro-2-fluoro-6-(4-(trifluoromethyl)-1H-1,2,3-triazol-1-yl)phenyl)-6-oxopyrimidin-1(6H)-yl)-3-methyl-4,5,6,7,9,10-hexahydrobenzo[b][1,5]-diazacyclododecine-2,8(1H,3H)-dione]	0.0043	0.733
C[C@@H]1CCC[C@H](n2cnc(-c3cc(Cl)ccc3-n3cc(C(F)(F)F)nn3)cc2=O)C(=O)NCc2ccccc2NC1=O [Example 11, (3R,7S)-7-(4-(5-Chloro-2-(4-(trifluoromethyl)-1H-1,2,3-triazol-1-yl)phenyl)-6-oxopyrimidin-1(6H)-yl)-3-methyl-4,5,6,7,9,10-hexahydrobenzo[b][1,5]-diazacyclododecine-2,8(1H, 3H)-dione]	0.0187	3.38
Cc1c(C(=O)N[C@H]2CCC[C@@H](C)C(=O)Nc3ccccc3CNC2=O)ncn1-c1cccc(Cl)c1F [Example 24, 1-(3-chloro-2-fluorophenyl)-5-methyl-N-((3R,7S)-3-methyl-2,8-dioxo-1,2,3,4,5,6,7,8,9,10-decahydrobenzo[b][1,5]diazacyclododecin-7-yl)-1H-imidazole-4-carboxamide]	7.41	4.36
C[C@@H]1CCC[C@H](n2cnc(-c3cc(Cl)ccc3-n3cc(Cl)nn3)cc2=O)C(=O)NCc2ccccc2NC1=O [Example 13, (3R,7S)-7-(4-(5-Chloro-2-(4-chloro-1H-1,2,3-triazol-1-yl)phenyl)-6-oxopyrimidin-1(6H)-yl)-3-methyl-4,5,6,7,9,10-hexahydrobenzo[b][1,5]diazacyclo-dodecine-2,8(1H,3H)-dione]	0.0085	1.23
C[C@@H]1CCC[C@H](N2CCC(c3cc(Cl)ccc3-n3cc(C(F)(F)F)nn3)=CC2=O)C(=O)NCc2cc(F)ccc2NC1=O [Example 20, (3R,7S)-7-(4-(5-Chloro-2-(4-(trifluoromethyl)-1H-1,2,3-triazol-1-yl)phenyl)-2-oxo-5,6-dihydropyridin-1(2H)-yl)-12-fluoro-3-methyl-4,5,6,7,9,10-hexahydrobenzo[b][1,5]diazacyclododecine-2,8(1H,3H)-dione]	0.007	0.268
C[C@@H]1CCC[C@H](n2cnc(-c3c(-n4cc(Cl)nn4)ccc(Cl)c3F)cc2=O)C(=O)NCc2ccccc2NC1=O [Example 12, (3R,7S)-7-(4-(3-Chloro-6-(4-chloro-1H-1,2,3-triazol-1-yl)-2-fluorophenyl)-6-oxopyrimidin-1(6H)-yl)-3-methyl-4,5,6,7,9,10-hexahydrobenzo[b][1,5]diazacyclo-dodecine-2,8(1H,3H)-dione]	0.002	0.179
O=C1CCCCC[C@H](NC(=O)c2cn(-c3cccc(Cl)c3F)nn2)C(=O)Nc2ccccc2N1 [Example 25, (S)-1-(3-chloro-2-fluorophenyl)-N-(2,9-dioxo-1,2,3,4,5,6,7,8,9,10-decahydrobenzo[b][1,4]diazacyclododecin-3-yl)-1H-1,2,3-triazole-4-carboxamide]	6	> 13
O=C1CCCCC[C@H](n2cnc(-c3cc(Cl)ccc3-n3cc(C(F)(F)F)nn3)cc2=O)C(=O)Nc2ccc(C(=O)O)cc2N1 [Example 28, (S)-3-(4-(5-chloro-2-(4-(trifluoromethyl)-1H-1,2,3-triazol-1-yl)phenyl)-6-oxopyrimidin-1(6H)-yl)-2,9-dioxo-1,2,3,4,5,6,7,8,9,10-decahydrobenzo[b][1,4]diazacyclododecine-12-carboxylic acid]	0.173	11.6
C[C@@H]1CCC[C@H](n2cnc(-c3cc(Cl)ccc3-n3cc(C(F)(F)F)nn3)cc2=O)C(=O)NCc2cc(F)ccc2NC1=O [Example 19, (3R,7S)-7-(4-(5-Chloro-2-(4-(trifluoromethyl)-1H-1,2,3-triazol-1-yl)phenyl)-6-oxopyrimidin-1(6H)-yl)-12-fluoro-3-methyl-4,5,6,7,9,10-hexahydrobenzo[b][1,5]diazacyclododecine-2,8(1H,3H)-dione]	0.0187	≥ 13
Cc1c(C(=O)N[C@H]2CCCCCC(=O)Nc3cc(C(=O)O)ccc3NC2=O)cnn1-c1cccc(Cl)c1F [Example 26, (S)-3-(1-(3-chloro-2-fluorophenyl)-5-methyl-1H-pyrazole-4-carboxamido)-2,9-dioxo-1,2,3,4,5,6,7,8,9,10-decahydrobenzo[b][1,4]diazacyclododecine-12-carboxylic acid]	1.74	0.765
C[C@@H]1CCC[C@H](N2CCC(c3cc(Cl)ccc3-n3cc(C(F)(F)F)nn3)=CC2=O)C(=O)NCc2ccccc2NC1=O [Example 18]	0.0031	0.103
C[C@@H]1CCC[C@H](n2ccc(-c3cc(Cl)ccc3-n3cc(Cl)nn3)cc2=O)C(=O)NCc2ccccc2NC1=O [Example 18]	0.0101	0.259
C[C@@H]1CCC[C@H](NC(=O)c2cn(-c3cccc(Cl)c3F)nn2)C(=O)NCc2ccccc2NC1=O [Example 23, 1-(3-chloro-2-fluorophenyl)-N-((3R,7S)-3-methyl-2,8-dioxo-1,2,3,4,5,6,7,8,9,10-decahydrobenzo[b][1,5]diazacyclododecin-7-yl)-1H-1,2,3-triazole-4-carboxamide]	8.73	≥ 13
CC1NC(=O)[C@@H](N2CCC(c3cc(Cl)ccc3-n3cc(C(F)(F)F)nn3)=CC2=O)CCC[C@@H](C)C(=O)Nc2ccccc21 (single isomer, unassigned; diastereomer b) [Example 22]	3.68	> 13
C[C@@H]1CCC[C@H](N2CCC(c3c(F)ccc(Cl)c3F)=CC2=O)C(=O)NCc2ccccc2NC1=O [Example 17, (3R,7S)-7-(4-(3-Chloro-2,6-difluorophenyl)-2-oxo-56-dihydropyridin-1(2H)-yl)-3-methy 1-4,5,6,7,9,10-hexahydrobenzo[b][1,5]diazacyclododecine-2,8(1H,3H)-dione]	0.112	0.558
